Data reported in publication PMC9861180, “Nintedanib-αVβ6 Integrin Ligand Conjugates Reduce TGFβ-Induced EMT in Human Non-Small Cell Lung Cancer” (International Journal of Molecular Sciences, 2023).
Entries after “also recorded” stand apart in the source; their conditions may differ.

What was measured:
[1] = tested on: E-cadherin; assay: E-cadherin expression, Western blot; assay type: cell-based, human; conditions: TGFβ-treated A549 cells, 5 μM, 24 h
Protocol: Left panel, representative Western blot of E-cadherin protein expression.
Western blot analysis was performed on whole-cell lysates of A549 cells, exposed for 48 h to TGFβ treatment and subsequently exposed to 5 µM concentrations of different compounds. After 24 h incubation, media were rapidly removed and cell monolayers were lysed as previously described in RIPA lysis buffer, with the addition of proteinase inhibitor cocktail (04693124001 Roche Merk Life Science S.r.l., Milano, Italy) for 30 min in ice [35]. Protein content was quantified, and forty-fifty micrograms of total proteins were separated on Bolt® Bis-Tris Plus gels 4–12% (Life Technologies, Monza, Italy). Fractionated proteins were transferred from the gel to a PVDF nitrocellulose membrane using iBlot 2 system (Life Technologies, Monza, Italy). Membranes were blocked for 5 min at room temperature, with EveryBlot Biorad blocking buffer (Life Technologies, Monza, Italy). Subsequently, the membranes were probed at 4 °C overnight with appropriate primary antibodies diluted in a solution of 1:1 Odyssey blocking buffer/T-PBS buffer, washed four times with PBS-Tween 0.1% solution, and probed with the secondary IRDye antibodies according to manufacturering instructions. The protein bands were analyzed by the Odyssey Infrared Imaging System (Lycor Bioscience) using software for protein quantification. […]

[2] = tested on: K562 cells; assay: Cell internalization by flow cytometry, αvβ6-negative K562; assay type: cell-based, human; conditions: 5 µM
From the text: In these cells, 74% of cells were positive after exposure to compound 1, whilst after exposure to compounds 2 and 3, positive cells ranged between 43.8 and 49% (Figure 4A). […] In addition, we investigated the internalization in αvβ6-negative K562 cells. […] Finally, two other αvβ6 integrin-expressing cell lines were used to evaluate the internalization of these compounds, namely the human melanoma cells SSM2c (Figure S4B) and the L929 murine fibroblasts (Figure S5B).
Briefly, A549 cells were seeded in standard medium (2 × 10^6 cells/100 mm Petri dishes, Sarstedt), and after adhesion, cells were grown in the presence or in the absence of TGFβ (10 ng/mL) for 48 h. […] After 24 h, cells were gently detached using Accutase (ECB3056D, Euroclone, Pero, Milano, Italy) or trypsin and the fluorescence, associated with different cell populations, was evaluated using the BV480 channel of the FACSCanto BD instrument (using 405 nm laser). Untreated cells were used as the negative control. The same procedure was applied to evaluate the internalization in K562, SSM2c, and L929 cells.
3. Expression of αvβ6 integrin receptor in K562 human erythroleukemic cells and internalization of conjugated compounds or nintedanib
Figure S3. Expression of αvβ6 integrin receptor in K562 human erythroleukemia cells (A). […]
assessed by flow cytometry measurements at 5 µM concentration. […]
as assessed by flow cytometry. […]

[3] = tested on: TGFβ-treated A549 cells; assay: Clonogenic assay; assay type: cell-based, human; conditions: sorted fluorescence-positive TGFβ-treated A549 cells after 5 μM 24 h; 2 weeks growth
Protocol: (A) After incubation, cells were sorted (BDMelody) and isolated cells from the selected population (indicated as P4) were seeded at low density (1000 cells/6 well petri dishes). (B) Number of colonies obtained after 2 weeks growth in standard media. (C) Quantification of colonies.
A549 lung adenocarcinoma cells were grown in the presence of TGFβ for 48 h. […] At the end of the incubation, cells were sorted using a fluorescence activated cell sorter (Melody, Becton Dickinson, Bioscience, Eysins, Switzerland). […] Activation of the labelled cells was provided by the violet laser (ex = 405 nm) while sorting of the activated cells was performed by their emitted wavelength at 480 nm (detection filter 450/50, using the BV480 channel). Isolated cells (1 × 10^3) were seeded in a FN-coated 6 well dishes. These isolated cells were cultured for 2 weeks. The medium was changed every 4 days until the emergence of colonies. The colonies were fixed and stained with Diff-Quick solution.

[4] = tested on: TGFβ-treated A549 cells; assay: Invasion assay through fibronectin-coated filters; assay type: cell-based; conditions: Homo sapiens, 24 h, read-out: migration inhibition (invasiveness) with respect to control
Protocol: The first assay envisaged the evaluation of cellular invasiveness of TGFβ-treated A549 cells by measuring the capacity of cells to migrate through fibronectin-coated filters.
Cells were allowed to migrate towards fibronectin-coated filters (10 μg/μL). Right panel, quantification of invasiveness. Data are percentages of migrated cells compared to untreated cells and expressed as mean value ± SEM of at least three independent experiments. * p < 0.05 and ** p < 0.001 vs. untreated cells. […] Experiments were performed at least three times.
Invasiveness of A549 cells was determined in vitro on fibronectin-precoated polycarbonate inserts (Sarstedt 83.3932.800, 8µm pore size, 0.3 cm^2 growth surface). Briefly, 50 µL of 10 μg/mL of fibronectin solution were seeded on each insert and allowed to dry in sterile conditions (1.6 µg/cm^2). A549 human lung carcinoma cells were grown in the presence of TGFβ for 48 h. After incubation, 3.5 × 10^4 cells were exposed to the different compounds, in serum-free medium (at 5 µM concentration), seeded in the upper compartment of the insert, and were free to perform in the absence of any chemoattractant. Inserts were incubated for 24 h at 37 °C in 10% CO2 in air. […] Photographs of randomly chosen fields were taken, and migrated cells were counted in 4 field/photograph.

[5] = tested on: tumor spheroids of TGFβ-treated A549 cells and murine L929 fibroblasts; assay: Tumor spheroid 2D flat surface migration and growth; assay type: cell-based, human; conditions: 5 µM, fibronectin-coated flat surface
Protocol: Heterogeneous spheroids of tumor cells and fibroblasts were also used to evaluate the ability of the compounds to inhibit 2D flat surface migration and growth once the spheroids were allowed to attach to a suitable surface (Figure 8).
Hanging drop tumor spheroids were allowed to spread on a 2D fibronectin-coated flat surface. […] Data are representative of three independent experiments (n = 6) and expressed as means ± SEM. * p < 0.05 vs. untreated spheroids.
A549 cells, exposed for 48 h to TGFβ treatment, were mixed in a 1:1 ratio with murine L929 fibroblast (40,000/mL) in order to obtain 3D multicellular tumor spheroids (MCTS) resembling cellular heterogenicity of the neoplastic lesion. […] After one week, multicellular tumor spheroids were completely formed. Tumor spheroids were next used in different experimental procedures. We evaluated 2D flat surface inhibition of migration and growth, and the inhibition of 3D growth. For 2D flat surface migration and growth inhibition assays, the spheroids were placed on regular culture dishes and allowed to spread and grow in complete medium containing different compounds at 5 µM concentration. The areas of cell spreading were used as parameters for migration (red lines), while the areas of the spheroid core were used as parameters for 2D growth (yellow lines). For 3D growth inhibition, spheroids were placed on 2% agarose coated dishes in complete medium containing the different treatments at 5 µM concentration. Spheroid areas were analysed and compared to time 0 and used to evaluate the inhibition of 3D growth (yellow lines). Images of all spheroids were taken daily using the EVOS XL Core Imaging System with a 10x objective (Thermofisher Scientific, Waltham, MA, USA ). All images were analysed using the open-source software ImageJ (1.52a, National Institutes of Health, Bethesda, MD, USA).

[6] = tested on: TGFβ-treated A549 cells; assay: cells; assay type: cell-based, human
Protocol: A549 cell viability was assessed using MTT (3-(4,5-dimethylthiazol-2-yl)-2,5-diphenyltetrazolium bromide) tetrazolium reduction assay (M5655, Sigma Aldrich, Milan, Italy), as described in [58]. Briefly, A549 cells were treated for 48 h in complete medium with TGFβ (10 ng/mL). Next, cells (2.5 × 10^3) were plated into 96-multiwell plates in 100 µL of complete medium. After adhesion, the compounds were added to the medium at different concentrations. After 24 h exposure, the medium was replaced with 100 µL MTT reagent in each well, and plates were incubated at 37 °C. After 2 h, MTT was removed, and the blue MTT–formazan product was solubilized with dimethyl sulfoxide (DMSO, Sigma Aldrich). The absorbance of the formazan solution was read at 595 nm using the microplate reader (Bio-Rad, Milan, Italy). Inhibition of cell proliferation was calculated by the IC50 calculator (AAT Bioquest, Inc., Pleasanton, CA, USA, https://www.aatbio.com/ (accessed on 1 July 2022)).

[7] = tested on: tumor spheroids of TGFβ-treated A549 cells and murine L929 fibroblasts; assay: Inhibition of 3D tumor spheroid growth; assay type: cell-based, human; conditions: 5 µM, 72 h, vs untreated spheroids
Protocol: Heterogeneous spheroids of tumor cells and fibroblasts were generated using the hanging drop technique to mimic the complex three-dimensional environment of tumor tissues. […] Next, the fluorescence intensities associated with each cell population were analyzed as previously described.
Hanging drop tumor spheroids were prepared starting from 1:1 mixed cell population (1000 cells/25μL) of TGF𝛽-treated A549 cells and murine L929 fibroblasts. […] (C) Quantitative analysis of inhibition of 3D growth and (D) 3D spheroid internalization of the compounds after 72 h exposure. Data are representative of three independent experiments (n = 6) and expressed as means ± SEM. * p < 0.05 vs. untreated spheroids.
A549 cells, exposed for 48 h to TGFβ treatment, were mixed in a 1:1 ratio with murine L929 fibroblast (40,000/mL) in order to obtain 3D multicellular tumor spheroids (MCTS) resembling cellular heterogenicity of the neoplastic lesion. […] After one week, multicellular tumor spheroids were completely formed. Tumor spheroids were next used in different experimental procedures. […] For 3D growth inhibition, spheroids were placed on 2% agarose coated dishes in complete medium containing the different treatments at 5 µM concentration. Spheroid areas were analysed and compared to time 0 and used to evaluate the inhibition of 3D growth (yellow lines). Images of all spheroids were taken daily using the EVOS XL Core Imaging System with a 10x objective (Thermofisher Scientific, Waltham, MA, USA ). All images were analysed using the open-source software ImageJ (1.52a, National Institutes of Health, Bethesda, MD, USA).

[8] = tested on: TGFβ-treated A549 cells; assay: F-actin cytoskeleton by confocal analysis (rhodamine-phalloidin); assay type: cell-based, human; conditions: 5 μM, 24 h
Protocol: After incubation, cells were fixed and processed for fluorescence confocal imaging. The cell cytoskeleton was stained with rhodamine-conjugated phalloidin. Image dimensions: 180 × 180 μm, scale bar 50 μm. Experiments were performed at least three times. (C) Quantification of disassembled cytoskeleton expressed as the percentage of cells with point-like fluorescence signals/total cells per field. Data are representative of three independent experiments. * p < 0.05, and ** p < 0.001 vs. TGFβ treated cells.
A549 cells, exposed for 48 h to TGFβ treatment, were grown on fibronectin-coated (10 µg/mL) (sc-29011 SantaCruz, D.B.A., Milano Italy) glass coverslips in 6-well plates for 2 h, after which adherent cells were exposed to the different treatments, in the absence of FCS, for 24h. After incubation, the culture medium was removed, cells were washed with PBS, and fixed 30 min at 4 °C with 3.7% paraformaldehyde. Cells were permeabilized for 15 min with PBS 0.1% Tryton X-100 at room temperature, and then incubated 1 h at room temperature with blocking buffer (0.1% Tryton X-100 and 5.5% horse serum PBS). […] A single composite image was obtained by superimposition of 20 optical sections for each sample analyzed.

[9] = tested on: α-smooth muscle actin (α-SMA); assay: α-smooth muscle actin protein expression, Western blot; assay type: cell-based, human; conditions: TGFβ-treated A549 cells, 5 μM, 24 h
Protocol: Data are expressed as means ± SEM of fold increment compared to untreated cells normalized to α-tubulin.
Western blot analysis was performed on whole-cell lysates of A549 cells, exposed for 48 h to TGFβ treatment and subsequently exposed to 5 µM concentrations of different compounds. After 24 h incubation, media were rapidly removed and cell monolayers were lysed as previously described in RIPA lysis buffer, with the addition of proteinase inhibitor cocktail (04693124001 Roche Merk Life Science S.r.l., Milano, Italy) for 30 min in ice [35]. Protein content was quantified, and forty-fifty micrograms of total proteins were separated on Bolt® Bis-Tris Plus gels 4–12% (Life Technologies, Monza, Italy). Fractionated proteins were transferred from the gel to a PVDF nitrocellulose membrane using iBlot 2 system (Life Technologies, Monza, Italy). Membranes were blocked for 5 min at room temperature, with EveryBlot Biorad blocking buffer (Life Technologies, Monza, Italy). […] The protein bands were analyzed by the Odyssey Infrared Imaging System (Lycor Bioscience) using software for protein quantification. […]

COC(=O)c1ccc2c(c1)NC(=O)/C2=C(\Nc1ccc(N(C)C(=O)CN2CCN(C)CC2)cc1)c1ccccc1 [nintedanib, Nintedanib]
E-cadherin expression [1]: enhanced | fluorescence-positive cells (compound internalization) [2]: 95–100% | reduction of colony formation compared to untreated cells [3]: 50% | inhibition at 5 µM [4]: 80% | 2D flat surface migration of tumor spheroids [5]: significantly impaired; also recorded: strong inhibition | 2D growth of tumor spheroids (spheroid core) [5]: significantly impaired | inhibition of cell proliferation (in words) ([6]; 0.5-50 μM, 24 h (Figure S8)): concentration-dependent inhibition | IC50 ([6]; Homo sapiens, A549, 24 h, read-out: IC50, inhibition of cell proliferation (MTT)): 7.5 µM | inhibition of cell proliferation (in words) ([6]; TGFβ-treated A549 cells, concentrations >10 μM): almost completely inhibited | inhibition of 3D spheroid growth [7]: inhibited significantly | F-actin bundle disassembly [8]: more significant reduction in the assembly of F-actin filaments | α-SMA protein expression [9]: reduced by half
